Tested on: C57BL/6 mice
Test: Marble burying test (MBT) in mice
Assay type: in vivo
Conditions: mouse, SC, 30-minute period
Protocol: Compound 1 produced an anxiolytic-like effect in the marble burying test (MBT) in C57BL/6 mice (FIG. 3).
Animals. Adult male C57BL/6 mice, aged 8-10 weeks (body weight 20-25 g) were used in these experiments. Animals were housed under controlled temperatures and 12-hour light/dark cycles (lights on between 07:00-19:00 h), with ad libitum food and water. This study was carried out in strict accordance with the requirements of the Committee for the Purpose of Control and Supervision of Experiments on Animals (CPCSEA), India. All efforts were made to minimize suffering.
Drugs and Drug Administration. Compound 1 was synthesized as described above. Desipramine HCl was commercially obtained. The test compound, vehicle, and the positive control desipramine were administered subcutaneously (SC), with doses calculated based on the freebase. Normal saline was used as the vehicle. All compounds were administered at a volume of 10 mL/kg. All treatments were administered 30 minutes prior to the start of behavioral testing. Group size was n=9-10 per treatment.
Marble Burying Test (MBT). […] Mice were handled for about 2 min daily for the 3 days prior to the beginning of the experimental procedure. […] The total number of marbles buried were counted in three 10-minute time bins (total 30 minutes). […]

With `CCCN1C[C@H](C(=O)N(CC)CC)C=C2c3cccc4[nH]cc(c34)C[C@H]21` [Compound 1, (6aR,9R)—N,N-diethyl-7-propyl-4,6,6a,7,8,9-hexahydroindolo[4,3-fg]quinoline-9-carboxamide] the “number of marbles buried compared to vehicle (in words)” value was “reduced the number of marbles buried”.
